The source of these data is ChEMBL document CHEMBL1136662, “Synthesis and properties of 11-(3,5-di-tert-butyl-2-hydroxyphenylcarbamoyl)undecanoic acid, a new amphiphilic antioxidant” (Bioorg Med Chem Lett, 2003).

The nature of this series: Hydrophobicity was determined. Type of series: ADME.

Regarding `CC(C)(C)c1cc(NC(=O)CCCCCCCCC(=O)O)c(O)c(C(C)(C)C)c1`, the “k'” value came out at 0.38.

Regarding `CCCCCCCCCC(=O)Nc1cc(C(C)(C)C)cc(C(C)(C)C)c1O`, the “k'” value turned out to be 7.13.

On to `CCCCCCCCCCCCCC(=O)Nc1cc(C(C)(C)C)cc(C(C)(C)C)c1O`, for which the “k'” value was found to be 25.2.

For `COCCCCCCCCCCCC(=O)Nc1cc(C(C)(C)C)cc(C(C)(C)C)c1O`, the “k'” value was determined as 6.39.

As to `CCCCCCCCCCCC(=O)Nc1cc(C(C)(C)C)cc(C(C)(C)C)c1O`, the “k'” value is given as 12.6.
